In the supplement of paper PMC10307832:

Assays:
Experiment in all cases: relative viability (nuclei count vs DMSO), 5 days (fraction); higher = more cells survive
[1] = compound: C1CNCCC1C2=CC(=NN2)C3=CC=NC=C3 + COc1cccc2cc(-c3nc([C@H]4CC[C@H](C(=O)O)CC4)n4ncnc(N)c34)[nH]c12 [OSI-027] (partner 0.5 µM)
Outline: (§1)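 Lung cancer cell lines in 1536-well plates got either a single drug or a fixed anchor-drug dose together with five library-drug doses (not always all listed) in √10 steps, by pin tool, on the day after seeding. Nuclei were counted after 5 days, and relative viability is the treated-to-vehicle ratio of nuclei counts. Values are medians of duplicate plates.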

[2] = compound: C1CNCCC1C2=CC(=NN2)C3=CC=NC=C3 + Nc1ncn([C@H]2C[C@H](O)[C@@H](CO)O2)c(=O)n1 [Decitabine] (partner 2 µM)
Outline: as §1

[3] = compound: C[C@@H](N)c1ccc(C(=O)Nc2ccnc3[nH]ccc23)cc1 + Nc1ncn([C@H]2C[C@H](O)[C@@H](CO)O2)c(=O)n1 [Decitabine] (partner 2 µM)
Outline: as §1

Tanzisertib + Foretinib = compound: O[C@H]1CC[C@H](Nc2ncc3nc(Nc4c(F)cc(F)cc4F)n([C@H]4CCOC4)c3n2)CC1 [Tanzisertib] + COc1cc2c(Oc3ccc(NC(=O)C4(C(=O)Nc5ccc(F)cc5)CC4)cc3F)ccnc2cc1OCCCN1CCOCC1 [Foretinib] (partner 0.25 µM)
Outline: as §1

Cell Line | relative viability ([1]; first compound 0.08 µM) | relative viability ([1]; first compound 0.8 µM) | relative viability ([1]; first compound 2.53 µM) | relative viability ([1]; first compound 8 µM) | relative viability ([2]; first compound 0.08 µM) | relative viability ([2]; first compound 0.8 µM) | relative viability ([2]; first compound 2.53 µM) | relative viability ([2]; first compound 8 µM) | relative viability ([3]; first compound 0.04 µM) | relative viability ([3]; first compound 0.1265 µM) | relative viability ([3]; first compound 0.4 µM) | relative viability ([3]; first compound 1.265 µM) | relative viability ([3]; first compound 4 µM) | relative viability (Tanzisertib + Foretinib; first compound 0.08 µM) | relative viability (Tanzisertib + Foretinib; first compound 0.253 µM) | relative viability (Tanzisertib + Foretinib; first compound 0.8 µM) | relative viability (Tanzisertib + Foretinib; first compound 2.53 µM) | relative viability (Tanzisertib + Foretinib; first compound 8 µM)
NCI-H2342 | 0.627 | 0.577 | 0.634 | 0.674 | 0.634 | 0.709 | 0.685 | 0.819 | 0.758 | 0.624 | 0.809 | 0.798 | 0.746 | 1.21 | 0.977 | 1.03 | 0.982 | 1.08
NCI-H2347 | 0.494 | 0.291 | 0.442 | 0.487 | 0.63 | 0.621 | 0.658 | 0.567 | 0.657 | 0.594 | 0.623 | 0.566 | 0.54 | 1.12 | 0.792 | 0.95 | 1.25 | 0.629
NCI-H2405 | 0.72 | 0.627 | 0.731 | 0.674 | 0.705 | 0.735 | 0.793 | 0.753 |  | 0.801 | 0.695 | 0.448 | 0.248 | 1.1 | 1.08 | 1.07 | 1.17 | 1.03
NCI-H3122 | 0.856 | 1.02 | 1.05 | 0.981 | 0.421 | 0.453 | 0.417 | 0.521 | 0.46 | 0.454 | 0.419 | 0.458 | 0.458 | 1.1 | 0.951 | 1.03 | 0.99 | 1.01
PC-3 [JPC-3] | 0.827 | 0.776 | 0.835 | 0.705 | 0.881 | 0.77 | 0.963 | 0.895 | 0.776 | 0.807 | 0.857 | 0.824 | 0.625 | 1.07 | 1.06 | 1.08 | 1.06 | 0.889
PC-14 | 0.722 | 1.12 | 0.986 | 0.822 | 0.22 | 0.19 | 0.268 | 0.265 | 0.24 | 0.217 | 0.277 | 0.258 | 0.188 | 1.05 | 0.983 | 0.933 | 0.951 | 0.61
RERF-LC-KJ | 0.537 | 0.521 | 0.581 | 0.576 | 0.692 | 0.689 | 0.766 | 0.668 | 0.762 | 0.764 | 0.75 | 0.806 | 0.634 | 0.929 | 0.788 | 0.873 | 0.841 | 0.842
SK-LU-1 | 0.386 | 0.346 | 0.346 | 0.342 | 0.571 | 0.646 | 0.674 | 0.638 | 0.587 | 0.654 | 0.585 | 0.516 | 0.472 | 0.837 | 0.755 | 0.807 | 0.815 | 0.781
SK-MES-1 | 0.51 | 0.565 | 0.624 | 0.593 | 0.29 | 0.436 | 0.397 | 0.339 | 0.341 | 0.309 | 0.32 | 0.322 | 0.314 | 0.971 | 0.917 | 0.889 | 0.992 | 0.7
SW 900 | 0.51 | 0.569 | 0.713 | 0.464 | 0.418 |  | 0.424 | 0.475 | 0.412 | 0.43 | 0.43 | 0.509 | 0.421 | 1.02 | 0.784 | 1.07 | 0.924 | 0.787
SW 1573 |  | 0.666 | 0.727 | 0.752 |  | 0.471 | 0.711 | 0.76 | 0.569 | 0.577 | 0.567 | 0.497 | 0.301 | 0.73 | 0.92 | 0.898 | 0.933 | 0.819
